Patent US8124610B2, “Sodium channel inhibitors” (Icagen Inc., priority 2007, dated 2012)

Tests used:
[1] = biological target: T1, hSCN3A (Homo sapiens, UniProt Q9NY46); test: Whole-cell patch-clamp electrophysiology (conventional or PatchXpress), HEK cells expressing hSCN3A, estimated IC-50; type: cell-based; settings: estimated IC-50, HEK cells expressing hSCN3A; class symbols or bounds; read-out: SCN3A EIC-50
T1 construct: expressed in transfected cells
Outline: (§1)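 Current through each channel was evoked by a 20 ms step to 0 mV following an 8 s conditioning prepulse at the cell's own half-inactivation voltage. Recordings used HEK lines stably expressing the channel, conventional or PatchXpress patch clamp, room temperature, pH 7.4 bath; inhibition taken as pre/post-compound amplitude change.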

[2] = biological target: T2, hSCN9A (Homo sapiens, UniProt Q15858); test: Whole-cell patch-clamp electrophysiology (conventional or PatchXpress), HEK cells expressing hSCN9A, estimated IC-50; type: cell-based; settings: estimated IC-50, HEK cells expressing hSCN9A; class symbols or bounds; read-out: SCN9A EIC-50
T2 construct: expressed in transfected cells
Outline: as §1

T2 sequence (Q15858 whole entry): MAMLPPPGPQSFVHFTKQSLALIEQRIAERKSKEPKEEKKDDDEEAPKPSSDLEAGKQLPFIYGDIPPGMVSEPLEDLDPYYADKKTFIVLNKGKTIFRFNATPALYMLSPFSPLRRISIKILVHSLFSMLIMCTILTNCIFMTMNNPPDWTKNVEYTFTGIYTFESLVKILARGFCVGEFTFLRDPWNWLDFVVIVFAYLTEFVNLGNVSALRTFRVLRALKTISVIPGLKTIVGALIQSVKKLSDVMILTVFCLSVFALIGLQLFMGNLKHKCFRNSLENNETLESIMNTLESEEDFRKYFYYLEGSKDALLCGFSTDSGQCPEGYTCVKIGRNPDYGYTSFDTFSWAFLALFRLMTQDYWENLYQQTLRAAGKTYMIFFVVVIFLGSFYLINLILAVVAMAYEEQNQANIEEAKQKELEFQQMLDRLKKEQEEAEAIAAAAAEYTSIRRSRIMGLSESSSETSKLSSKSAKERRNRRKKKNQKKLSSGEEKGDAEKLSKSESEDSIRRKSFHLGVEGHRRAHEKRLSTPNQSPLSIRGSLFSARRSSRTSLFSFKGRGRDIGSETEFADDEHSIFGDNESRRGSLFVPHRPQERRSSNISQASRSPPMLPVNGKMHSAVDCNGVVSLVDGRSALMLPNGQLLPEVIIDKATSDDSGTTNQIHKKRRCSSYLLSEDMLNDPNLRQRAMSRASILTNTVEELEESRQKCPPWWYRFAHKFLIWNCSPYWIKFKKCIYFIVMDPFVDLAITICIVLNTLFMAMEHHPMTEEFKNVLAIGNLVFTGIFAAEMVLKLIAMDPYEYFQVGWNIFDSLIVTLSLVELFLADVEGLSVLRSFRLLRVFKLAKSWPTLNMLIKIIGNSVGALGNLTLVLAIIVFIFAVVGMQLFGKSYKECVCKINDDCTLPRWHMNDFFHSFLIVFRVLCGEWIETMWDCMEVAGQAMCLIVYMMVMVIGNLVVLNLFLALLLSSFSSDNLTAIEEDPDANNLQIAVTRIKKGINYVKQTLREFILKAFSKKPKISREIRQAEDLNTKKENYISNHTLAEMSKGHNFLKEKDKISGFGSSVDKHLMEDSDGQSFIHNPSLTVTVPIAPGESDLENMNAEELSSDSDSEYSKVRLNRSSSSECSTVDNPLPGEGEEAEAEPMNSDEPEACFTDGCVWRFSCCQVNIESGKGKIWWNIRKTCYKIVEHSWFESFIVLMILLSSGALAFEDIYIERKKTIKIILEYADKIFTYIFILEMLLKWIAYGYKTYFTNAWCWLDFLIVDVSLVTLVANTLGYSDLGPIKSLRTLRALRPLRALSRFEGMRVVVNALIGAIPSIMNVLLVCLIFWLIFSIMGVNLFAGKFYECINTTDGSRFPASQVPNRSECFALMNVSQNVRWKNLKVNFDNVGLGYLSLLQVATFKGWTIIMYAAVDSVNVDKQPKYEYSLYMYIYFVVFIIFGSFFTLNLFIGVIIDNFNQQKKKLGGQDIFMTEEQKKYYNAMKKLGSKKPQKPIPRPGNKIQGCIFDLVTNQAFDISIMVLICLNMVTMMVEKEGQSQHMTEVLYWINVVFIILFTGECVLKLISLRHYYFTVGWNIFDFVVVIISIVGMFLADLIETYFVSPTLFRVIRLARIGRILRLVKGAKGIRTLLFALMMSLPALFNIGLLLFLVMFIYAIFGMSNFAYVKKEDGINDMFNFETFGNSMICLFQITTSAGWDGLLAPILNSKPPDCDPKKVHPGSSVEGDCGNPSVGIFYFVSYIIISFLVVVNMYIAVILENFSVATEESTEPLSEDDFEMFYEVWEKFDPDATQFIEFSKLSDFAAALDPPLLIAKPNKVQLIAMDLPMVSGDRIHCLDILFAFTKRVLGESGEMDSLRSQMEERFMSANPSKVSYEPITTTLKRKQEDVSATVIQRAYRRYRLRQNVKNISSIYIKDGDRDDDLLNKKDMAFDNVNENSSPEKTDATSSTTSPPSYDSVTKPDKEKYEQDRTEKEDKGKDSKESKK
T1 sequence (Q9NY46 whole entry): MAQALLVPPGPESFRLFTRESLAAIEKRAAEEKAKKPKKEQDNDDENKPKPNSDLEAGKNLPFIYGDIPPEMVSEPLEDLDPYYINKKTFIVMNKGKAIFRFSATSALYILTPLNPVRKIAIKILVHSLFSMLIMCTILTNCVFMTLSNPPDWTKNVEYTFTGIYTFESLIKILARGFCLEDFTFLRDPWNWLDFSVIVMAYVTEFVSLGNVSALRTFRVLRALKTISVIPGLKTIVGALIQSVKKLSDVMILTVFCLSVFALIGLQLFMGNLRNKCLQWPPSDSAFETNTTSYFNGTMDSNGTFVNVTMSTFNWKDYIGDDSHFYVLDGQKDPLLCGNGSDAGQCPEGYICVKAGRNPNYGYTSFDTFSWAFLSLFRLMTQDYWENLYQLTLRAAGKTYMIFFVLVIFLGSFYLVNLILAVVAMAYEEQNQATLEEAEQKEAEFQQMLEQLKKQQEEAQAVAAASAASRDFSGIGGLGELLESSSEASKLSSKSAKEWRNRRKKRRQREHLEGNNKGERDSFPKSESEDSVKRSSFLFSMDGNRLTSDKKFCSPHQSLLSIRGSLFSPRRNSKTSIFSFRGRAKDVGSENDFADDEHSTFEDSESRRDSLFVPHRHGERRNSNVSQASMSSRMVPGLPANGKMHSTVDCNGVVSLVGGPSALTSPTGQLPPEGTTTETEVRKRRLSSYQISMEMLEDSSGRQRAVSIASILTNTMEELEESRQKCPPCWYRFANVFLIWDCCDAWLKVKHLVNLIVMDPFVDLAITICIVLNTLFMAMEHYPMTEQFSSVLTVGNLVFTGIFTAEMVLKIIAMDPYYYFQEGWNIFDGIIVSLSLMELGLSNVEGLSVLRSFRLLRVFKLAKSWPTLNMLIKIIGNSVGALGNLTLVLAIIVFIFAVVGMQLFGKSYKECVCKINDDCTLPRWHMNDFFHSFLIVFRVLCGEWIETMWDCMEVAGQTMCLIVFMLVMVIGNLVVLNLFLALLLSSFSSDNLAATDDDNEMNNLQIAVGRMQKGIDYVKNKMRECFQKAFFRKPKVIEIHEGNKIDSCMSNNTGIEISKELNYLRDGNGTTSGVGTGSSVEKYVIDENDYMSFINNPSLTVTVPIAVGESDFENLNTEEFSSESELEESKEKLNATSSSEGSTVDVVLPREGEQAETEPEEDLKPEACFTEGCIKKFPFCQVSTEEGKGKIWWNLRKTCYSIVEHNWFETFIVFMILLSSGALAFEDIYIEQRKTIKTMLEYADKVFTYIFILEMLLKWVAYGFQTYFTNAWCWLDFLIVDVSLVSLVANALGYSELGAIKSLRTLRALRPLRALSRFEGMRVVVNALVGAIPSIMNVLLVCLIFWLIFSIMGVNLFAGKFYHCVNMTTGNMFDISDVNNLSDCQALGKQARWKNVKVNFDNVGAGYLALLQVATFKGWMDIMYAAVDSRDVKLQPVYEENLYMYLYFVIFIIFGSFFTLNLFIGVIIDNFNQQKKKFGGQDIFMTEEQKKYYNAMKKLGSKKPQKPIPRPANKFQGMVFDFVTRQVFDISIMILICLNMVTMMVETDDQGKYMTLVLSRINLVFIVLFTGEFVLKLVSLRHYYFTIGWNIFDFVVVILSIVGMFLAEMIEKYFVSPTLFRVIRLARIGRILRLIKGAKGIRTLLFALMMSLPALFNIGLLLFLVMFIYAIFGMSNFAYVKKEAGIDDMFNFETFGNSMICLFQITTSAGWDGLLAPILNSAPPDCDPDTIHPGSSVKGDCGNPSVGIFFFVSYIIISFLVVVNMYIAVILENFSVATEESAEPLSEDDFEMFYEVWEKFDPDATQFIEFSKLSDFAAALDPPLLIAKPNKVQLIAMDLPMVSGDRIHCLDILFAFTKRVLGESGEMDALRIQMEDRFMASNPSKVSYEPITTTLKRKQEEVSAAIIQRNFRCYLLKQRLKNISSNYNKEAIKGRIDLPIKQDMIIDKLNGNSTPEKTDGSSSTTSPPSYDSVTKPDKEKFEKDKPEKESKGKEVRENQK

SMILES | IC50 [1] | IC50 [2]
O=S(=O)(Nc1ccccn1)c1ccc(Nc2nc(Cc3ccc(Cl)cc3)cs2)cc1 [Compound 103, 4-(4-(4-chlorobenzyl)thiazol-2-ylamino)-N-(pyridin-2-yl)benzenesulfonamide] | > 10 µM | > 1 µM
CC(C)(C)c1csc(Nc2ccc(S(=O)(=O)Nc3nccs3)cn2)n1 [Compound 106, 6-(4-tert-butylthiazol-2-ylamino)-N-(thiazol-2-yl)pyridine-3-sulfonamide] | 2 to 10 µM | > 1 µM
Cc1cnc(NS(=O)(=O)c2ccc(Nc3nc(Cc4ccc(Cl)cc4)cs3)cc2F)s1 [Compound 108, 4-(4-(4-chlorobenzyl)thiazol-2-ylamino)-2-fluoro-N-(5-methylthiazol-2-yl)benzenesulfonamide] | 2 to 10 µM | 2 to 10 µM
NC(=O)c1cnn(-c2ccc(F)c(Cl)c2)c1Nc1ccc(S(=O)(=O)Nc2nccs2)cc1 [Compound 112, 1-(3-chloro-4-fluorophenyl)-5-(4-(N-thiazol-2-ylsulfamoyl)phenylamino)-1H-pyrazole-4-carboxamide] | > 1 µM | > 1 µM
CC(C)(C)c1csc(Nc2ccc(S(=O)(=O)Nc3nccs3)c(C#N)c2)n1 [Compound 113, 4-(4-tert-butylthiazol-2-ylamino)-2-cyano-N-(thiazol-2-yl)benzenesulfonamide] | 2 to 10 µM | > 1 µM
Cn1nc(C2(c3ccc(Cl)cc3)CC2)cc1Nc1ccc(S(=O)(=O)Nc2nccs2)cc1 [Compound 129, 4-(3-(1-(4-chlorophenyl)cyclopropyl)-1-methyl-1H-pyrazol-5-ylamino)-N-(thiazol-2-yl)benzenesulfonamide] | < 2 µM | < 2 µM
O=S(=O)(Nc1nccs1)c1ccc(Nc2cnn(CC(F)(F)F)c2)cc1F [Compound 130, 2-fluoro-N-(thiazol-2-yl)-4-(1-(2,2,2-trifluoroethyl)-1H-pyrazol-4-ylamino)benzenesulfonamide] | < 2 µM | 2 to 10 µM
Cn1nc(CC2CCCCC2)cc1Nc1ccc(S(=O)(=O)Nc2nccs2)c(F)c1 [Compound 133, 4-(3-(cyclohexylmethyl)-1-methyl-1H-pyrazol-5-ylamino)-2-fluoro-N-(thiazol-2-yl)benzenesulfonamide] | < 2 µM | < 2 µM
Cn1nc(CC2CCCCC2)cc1Nc1ccc(S(=O)(=O)Nc2nccs2)c(O)c1 [Compound 134, 4-(3-(cyclohexylmethyl)-1-methyl-1H-pyrazol-5-ylamino)-2-hydroxy-N-(thiazol-2-yl)benzenesulfonamide] | < 2 µM | < 2 µM
CC(C)c1cc(Nc2ccc(S(=O)(=O)Nc3nccs3)c(F)c2)n(-c2ccccc2)n1 [Compound 145, 2-fluoro-4-(3-isopropyl-1-phenyl-1H-pyrazol-5-ylamino)-N-(thiazol-2-yl)benzenesulfonamide] | < 2 µM | < 2 µM
Cc1cc(Nc2ccc(S(=O)(=O)Nc3nccs3)c(F)c2)n(-c2ccccc2C)n1 [Compound 146, 2-fluoro-4-(3-methyl-1-o-tolyl-1H-pyrazol-5-ylamino)-N-(thiazol-2-yl)benzenesulfonamide] | < 2 µM | < 2 µM
Cc1ccc(-n2nc(C)cc2Nc2ccc(S(=O)(=O)Nc3nccs3)c(F)c2)cc1 [Compound 147, 2-fluoro-4-(3-methyl-1-p-tolyl-1H-pyrazol-5-ylamino)-N-(thiazol-2-yl)benzenesulfonamide] | < 2 µM | < 2 µM
Cc1cc(Nc2ccc(S(=O)(=O)Nc3nccs3)c(F)c2)n(-c2ccccc2Cl)n1 [Compound 149, 4-(1-(2-chlorophenyl)-3-methyl-1H-pyrazol-5-ylamino)-2-fluoro-N-(thiazol-2-yl)benzenesulfonamide] | < 2 µM | < 2 µM
O=S(=O)(Nc1nccs1)c1ccc(Nc2cnn(Cc3ccc(C(F)(F)F)cc3)c2)cc1F [Compound 150, 2-fluoro-N-(thiazol-2-yl)-4-(1-(4-(trifluoromethyl)benzyl)-1H-pyrazol-4-ylamino)benzenesulfonamide] | < 2 µM | < 2 µM
O=S(=O)(Nc1nccs1)c1ccc(Nc2ccnn2-c2ccccc2)cc1 [Compound 151, 4-(1-phenyl-1H-pyrazol-5-ylamino)-N-(thiazol-2-yl)benzenesulfonamide] | < 2 µM | 2 to 10 µM
Cc1cc(Nc2ccc(S(=O)(=O)Nc3nccs3)c(F)c2)n(-c2cccc(Cl)c2)n1 [Compound 152, 4-(1-(3-chlorophenyl)-3-methyl-1H-pyrazol-5-ylamino)-2-fluoro-N-(thiazol-2-yl)benzenesulfonamide] | < 2 µM | < 2 µM

Other lines, results leading:

IC50 [1] | IC50 [2] | SMILES
< 2 µM | > 1 µM | O=S(=O)(Nc1nccs1)c1ccc(Nc2nc(-c3ccc(C(F)(F)F)cc3F)cs2)cc1 [Compound 90, 4-(4-(2-fluoro-4-(trifluoromethyl)phenyl)thiazol-2-ylamino)-N-(thiazol-2-yl)benzenesulfonamide]
< 2 µM | < 2 µM | O=S(=O)(Nc1nccs1)c1ccc(Nc2nc(Cc3ccc(Cl)cc3)cs2)cc1 [Compound 91, 4-(4-(4-chlorobenzyl)thiazol-2-ylamino)-N-(thiazol-2-yl)benzenesulfonamide]
< 2 µM | 2 to 10 µM | O=S(=O)(Nc1nccs1)c1ccc(Nc2cncc(C(c3ccccc3)c3ccccc3)n2)cc1 [Compound 92, 4-(6-benzhydrylpyrazin-2-ylamino)-N-(thiazol-2-yl)benzenesulfonamide]
< 2 µM | > 1 µM | O=S(=O)(Nc1nccs1)c1ccc(Nc2cccc(C(c3ccccc3)c3ccccc3)n2)cc1 [Compound 93, 4-(6-benzhydrylpyridin-2-ylamino)-N-(thiazol-2-yl)benzenesulfonamide]
< 2 µM | < 2 µM | O=S(=O)(Nc1nccs1)c1ccc(Nc2nc(CCCOc3ccc(Cl)cc3)cs2)cc1 [Compound 94, 4-(4-(3-(4-chlorophenoxy)propyl)thiazol-2-ylamino)-N-(thiazol-2-yl)benzenesulfonamide]
< 2 µM | < 2 µM | O=S(=O)(Nc1nccs1)c1ccc(Nc2nc(COc3ccc(Cl)cc3Cl)cs2)cc1 [Compound 95, 4-(4-((2,4-dichlorophenoxy)methyl)thiazol-2-ylamino)-N-(thiazol-2-yl)benzenesulfonamide]
< 2 µM | < 2 µM | Cc1cc(Cl)ccc1OCc1csc(Nc2ccc(S(=O)(=O)Nc3nccs3)cc2)n1 [Compound 96, 4-(4-((4-chloro-2-methylphenoxy)methyl)thiazol-2-ylamino)-N-(thiazol-2-yl)benzenesulfonamide]
< 2 µM | > 1 µM | CC(C)(Oc1ccc(Cl)cc1)c1csc(Nc2ccc(S(=O)(=O)Nc3nccs3)cc2)n1 [Compound 97, 4-(4-(2-(4-chlorophenoxy)propan-2-yl)thiazol-2-ylamino)-N-(thiazol-2-yl)benzenesulfonamide]
< 2 µM | 2 to 10 µM | O=S(=O)(Nc1nccs1)c1ccc(Nc2cncc(Cc3cc(F)cc(F)c3)n2)cc1 [Compound 98, 4-(6-(3,5-difluorobenzyl)pyrazin-2-ylamino)-N-(thiazol-2-yl)benzenesulfonamide]
< 2 µM | 2 to 10 µM | O=S(=O)(Nc1nccs1)c1ccc(Nc2nc3cc(Cl)ccc3[nH]2)cc1 [Compound 99, 4-(5-chloro-1H-benzo[d]imidazol-2-ylamino)-N-(thiazol-2-yl)benzenesulfonamide]
< 2 µM | 2 to 10 µM | Cn1c(Nc2ccc(S(=O)(=O)Nc3nccs3)cc2)nc2cc(Cl)ccc21 [Compound 100, 4-(5-chloro-1-methyl-1H-benzo[d]imidazol-2-ylamino)-N-(thiazol-2-yl)benzenesulfonamide]
< 2 µM | 2 to 10 µM | Cn1c(Nc2ccc(S(=O)(=O)Nc3nccs3)cc2)nc2ccc(Cl)cc21 [Compound 101, 4-(6-chloro-1-methyl-1H-benzo[d]imidazol-2-ylamino)-N-(thiazol-2-yl)benzenesulfonamide]
< 2 µM | > 10 µM | O=S(=O)(Nc1nccs1)c1ccc(Nc2ncc(S(=O)(=O)c3ccc(Cl)cc3)s2)cc1F [Compound 105, 4-(5-(4-chlorophenylsulfonyl)thiazol-2-ylamino)-2-fluoro-N-(thiazol-2-yl)benzenesulfonamide]
< 2 µM | 2 to 10 µM | O=S(=O)(Nc1nccs1)c1ccc(Nc2nc(Cc3ccc(Cl)cc3)cs2)nc1 [Compound 107, 6-(4-(4-chlorobenzyl)thiazol-2-ylamino)-N-(thiazol-2-yl)pyridine-3-sulfonamide]
< 2 µM | 2 to 10 µM | Cc1csc(NS(=O)(=O)c2ccc(Nc3nc(Cc4ccc(Cl)cc4)cs3)cc2F)n1 [Compound 109, 4-(4-(4-chlorobenzyl)thiazol-2-ylamino)-2-fluoro-N-(4-methylthiazol-2-yl)benzenesulfonamide]
< 2 µM | > 10 µM | CC(C)(C)n1nc(Cc2ccc(Cl)cc2)cc1Nc1ccc(S(=O)(=O)Nc2ccccn2)cc1 [Compound 110, 4-(1-tert-butyl-3-(4-chlorobenzyl)-1H-pyrazol-5-ylamino)-N-(pyridin-2-yl)benzenesulfonamide]
< 2 µM | 2 to 10 µM | CC(C)(C)n1nc(Cc2ccc(Cl)cc2)cc1Nc1ccc(S(=O)(=O)Nc2nncs2)cc1 [Compound 111, 4-(1-tert-butyl-3-(4-chlorobenzyl)-1H-pyrazol-5-ylamino)-N-(1,3,4-thiadiazol-2-yl)benzenesulfonamide]
< 2 µM | < 2 µM | O=S(=O)(Nc1nccs1)c1ccc(Nc2cc(Cc3ccc(Cl)cc3)n[nH]2)cc1F [Compound 115, 4-(3-(4-chlorobenzyl)-1H-pyrazol-5-ylamino)-2-fluoro-N-(thiazol-2-yl)benzenesulfonamide]
